Assay: Dynamic vapor sorption (DVS) analysis
Type: physicochemical
Conditions: between about 2 to about 92% relative humidity (RH); at 25° C.
Method: Dynamic vapor sorption (DVS) analysis was performed using a DVS Intrinsic 1. The sample (25 mg) was loaded into a sample pan, suspended from a microbalance and exposed to a humidified stream of nitrogen gas. The sample was held for a minimum of 5 min at each level and only progressed to the next humidity level if there was <0.002% change in weight between measurements (interval: 60 seconds) or 240 min had elapsed.

DVS mass change expressed as equivalents of water	dynamic vapor sorption (DVS) profile, mass change	Structure (SMILES)
about 1.48 eq. water	about 6.34 wt. %	Cn1nccc1-c1cc2c(n3cnnc13)NCc1c(F)ccc3c1C(CO3)CO2 (stereo in doubt) [Form A, (S)-12-fluoro-4-(1-methyl-1H-pyrazol-5-yl)-7a,8,13,14-tetrahydro-7H-[1,2,4]triazolo[4′,3′:1,6]pyrido[3,2-b]benzofuro[4,3-fg][1,4]oxazonine]
	about 0.23 wt. %	Cn1nccc1-c1cc2c(n3cnnc13)NCc1c(F)ccc3c1C(CO3)CO2 (stereo in doubt) [Form E, (S)-12-fluoro-4-(1-methyl-1H-pyrazol-5-yl)-7a,8,13,14-tetrahydro-7H-[1,2,4]triazolo[4′,3′:1,6]pyrido[3,2-b]benzofuro[4,3-fg][1,4]oxazonine]
	about 0.38 wt. %	Cn1nccc1-c1cc2c(n3cnnc13)NCc1c(F)ccc3c1C(CO3)CO2 (stereo in doubt) [Form U, (S)-12-fluoro-4-(1-methyl-1H-pyrazol-5-yl)-7a,8,13,14-tetrahydro-7H-[1,2,4]triazolo[4′,3′:1,6]pyrido[3,2-b]benzofuro[4,3-fg][1,4]oxazonine]

From patent US20240199645A1, “POLYMORPHIC FORMS OF (S)-12-FLUORO-4-(1-METHYL-1H-PYRAZOL-5-YL)-7A,8,13,14-TETRAHYDRO-7H-[1,2,4]TRIAZOLO[4',3':1,6]PYRIDO[3,2-B]BENZOFURO[4,3-FG][1,4]OXAZONINE” (Fulcrum Therapeutics, Inc., priority 2021, published 2024)
